One block for each compound: values may come before it.
Test system: 817829-284-R-J1-PDC multi-cell spheroid viability
Assay: Anticancer human tumor 817829-284-R-J1-PDC patient-derived colon adenocarcinoma cell line growth inhibition [PI3K]
Conditions: for IC50: curve of first compound; for viability, T/C: stronger effect = lower value
Outline: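 Complex 3D spheroids (cancer cells + endothelial HUVEC + mesenchymal stem cells); drug pairs of targeted agent x inavolisib/alpelisib/duvelisib/copanlisib; half-log series from ~Cmax, max 10 microM if Cmax unknown; endpoint viability.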

[1] = second compound 0.0316 µM, first compound 0.000316 µM
[2] = second compound 0.0316 µM, first compound 0.001 µM
[3] = second compound 0.0316 µM, first compound 0.00316 µM
[4] = second compound 0.0316 µM, first compound 0.01 µM
[5] = second compound 0.0316 µM, first compound 0.0316 µM
[6] = second compound 0.0316 µM, first compound 0.1 µM
[7] = second compound 0.1 µM, first compound 0.000316 µM
[8] = second compound 0.1 µM, first compound 0.001 µM
[9] = second compound 0.1 µM, first compound 0.00316 µM
[10] = second compound 0.1 µM, first compound 0.01 µM
[11] = second compound 0.1 µM, first compound 0.0316 µM
[12] = second compound 0.1 µM, first compound 0.1 µM
[13] = second compound 0.316 µM, first compound 0.000316 µM
[14] = second compound 0.316 µM, first compound 0.001 µM
[15] = second compound 0.316 µM, first compound 0.00316 µM
[16] = second compound 0.316 µM, first compound 0.01 µM
[17] = second compound 0.316 µM, first compound 0.0316 µM
[18] = second compound 0.316 µM, first compound 0.1 µM
[19] = second compound 1 µM, first compound 0.000316 µM
[20] = second compound 1 µM, first compound 0.001 µM
[21] = second compound 1 µM, first compound 0.00316 µM
[22] = second compound 1 µM, first compound 0.01 µM
[23] = second compound 1 µM, first compound 0.0316 µM
[24] = second compound 1 µM, first compound 0.1 µM
[25] = second compound 3.16 µM, first compound 0.000316 µM
[26] = second compound 3.16 µM, first compound 0.001 µM
[27] = second compound 3.16 µM, first compound 0.00316 µM
[28] = second compound 3.16 µM, first compound 0.01 µM
[29] = second compound 3.16 µM, first compound 0.0316 µM
[30] = second compound 3.16 µM, first compound 0.1 µM
[31] = second compound 10 µM, first compound 0.000316 µM
[32] = second compound 10 µM, first compound 0.001 µM
[33] = second compound 10 µM, first compound 0.00316 µM
[34] = second compound 10 µM, first compound 0.01 µM
[35] = second compound 10 µM, first compound 0.0316 µM
[36] = second compound 10 µM, first compound 0.1 µM
[37] = second compound 0.00316 µM, first compound 0.0316 µM
[38] = second compound 0.00316 µM, first compound 0.1 µM
[39] = second compound 0.00316 µM, first compound 0.316 µM
[40] = second compound 0.00316 µM, first compound 1 µM
[41] = second compound 0.00316 µM, first compound 3.16 µM
[42] = second compound 0.00316 µM, first compound 10 µM
[43] = second compound 0.01 µM, first compound 0.0316 µM
[44] = second compound 0.01 µM, first compound 0.1 µM
[45] = second compound 0.01 µM, first compound 0.316 µM
[46] = second compound 0.01 µM, first compound 1 µM
[47] = second compound 0.01 µM, first compound 3.16 µM
[48] = second compound 0.01 µM, first compound 10 µM
[49] = second compound 0.0316 µM, first compound 0.316 µM
[50] = second compound 0.0316 µM, first compound 1 µM
[51] = second compound 0.0316 µM, first compound 3.16 µM
[52] = second compound 0.0316 µM, first compound 10 µM
[53] = second compound 0.1 µM, first compound 0.316 µM
[54] = second compound 0.1 µM, first compound 1 µM
[55] = second compound 0.1 µM, first compound 3.16 µM
[56] = second compound 0.1 µM, first compound 10 µM
[57] = second compound 0.316 µM, first compound 0.316 µM
[58] = second compound 0.316 µM, first compound 1 µM
[59] = second compound 0.316 µM, first compound 3.16 µM
[60] = second compound 0.316 µM, first compound 10 µM
[61] = second compound 1 µM, first compound 0.316 µM
[62] = second compound 1 µM, first compound 1 µM
[63] = second compound 1 µM, first compound 3.16 µM
[64] = second compound 1 µM, first compound 10 µM
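Note: spheroids exposed to agents for seven days before readout.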
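Throughout, for viability, T/C: percent of vehicle DMSO control viability which is 100%.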

IC50 (second compound 0.0316 µM): 0.0251 µM
IC50 (second compound 0.1 µM): 0.0627 µM
IC50 (second compound 0.316 µM): 0.0072 µM
IC50 (second compound 1 µM): 0.0412 µM
IC50 (second compound 3.16 µM): 0.0163 µM
IC50 (second compound 10 µM): 0.0119 µM
SMILES: Cn1ncnc1[C@H]1c2n[nH]c(=O)c3cc(F)cc(c23)N[C@@H]1c1ccc(F)cc1 + Cc1nc(NC(=O)N2CCCC2C(N)=O)sc1-c1ccnc(C(C)(C)C(F)(F)F)c1
viability, T/C [1]: 60.7%
viability, T/C [2]: 77%
viability, T/C [3]: 72.5%
viability, T/C [4]: 55.1%
viability, T/C [5]: 49.4%
viability, T/C [6]: 48%
viability, T/C [7]: 78.6%
viability, T/C [8]: 72.2%
viability, T/C [9]: 69.1%
viability, T/C [10]: 59.6%
viability, T/C [11]: 53.9%
viability, T/C [12]: 47.5%
viability, T/C [13]: 84.8%
viability, T/C [14]: 87.2%
viability, T/C [15]: 55.5%
viability, T/C [16]: 55.8%
viability, T/C [17]: 37.2%
viability, T/C [18]: 50.2%
viability, T/C [19]: 59%
viability, T/C [20]: 52.1%
viability, T/C [21]: 54.5%
viability, T/C [22]: 43.3%
viability, T/C [23]: 70.2%
viability, T/C [24]: 30.8%
viability, T/C [25]: 48.5%
viability, T/C [26]: 72.7%
viability, T/C [27]: 60.7%
viability, T/C [28]: 62.6%
viability, T/C [29]: 33.1%
viability, T/C [30]: 36.8%
viability, T/C [31]: 49.9%
viability, T/C [32]: 54.9%
viability, T/C [33]: 60.7%
viability, T/C [34]: 40.6%
viability, T/C [35]: 50.8%
viability, T/C [36]: 38.2%

IC50 (second compound 0.0316 µM): 0.0272 µM
IC50 (second compound 0.1 µM): 0.00434 µM
IC50 (second compound 0.316 µM): 0.0236 µM
IC50 (second compound 1 µM): 0.00326 µM
IC50 (second compound 3.16 µM): 0.00205 µM
IC50 (second compound 10 µM): < 0.000316 µM
SMILES: CC(=O)c1c(C)c2cnc(Nc3ccc(N4CCNCC4)cn3)nc2n(C2CCCC2)c1=O + Cc1nc(NC(=O)N2CCCC2C(N)=O)sc1-c1ccnc(C(C)(C)C(F)(F)F)c1
viability, T/C [1]: 88.4%
viability, T/C [2]: 96.1%
viability, T/C [3]: 70.8%
viability, T/C [4]: 60.1%
viability, T/C [5]: 52.8%
viability, T/C [6]: 38.2%
viability, T/C [7]: 71.2%
viability, T/C [8]: 79.7%
viability, T/C [9]: 52.4%
viability, T/C [10]: 45%
viability, T/C [11]: 38.1%
viability, T/C [12]: 47.6%
viability, T/C [13]: 75.1%
viability, T/C [14]: 53.8%
viability, T/C [15]: 65.9%
viability, T/C [16]: 66.9%
viability, T/C [17]: 34.7%
viability, T/C [18]: 44.7%
viability, T/C [19]: 43.6%
viability, T/C [20]: 55.4%
viability, T/C [21]: 51.6%
viability, T/C [22]: 42.1%
viability, T/C [23]: 37.3%
viability, T/C [24]: 37%
viability, T/C [25]: 62.5%
viability, T/C [26]: 58.9%
viability, T/C [27]: 38.3%
viability, T/C [28]: 49.3%
viability, T/C [29]: 32%
viability, T/C [30]: 31.5%
viability, T/C [31]: 51.8%
viability, T/C [32]: 43.8%
viability, T/C [33]: 40.7%
viability, T/C [34]: 47.5%
viability, T/C [35]: 43.8%
viability, T/C [36]: 21.3%

IC50 (second compound 0.00316 µM): > 10 µM
IC50 (second compound 0.01 µM): > 10 µM
IC50 (second compound 0.0316 µM): > 10 µM
IC50 (second compound 0.1 µM): < 0.0316 µM
IC50 (second compound 0.316 µM): < 0.0316 µM
IC50 (second compound 1 µM): < 0.0316 µM
SMILES: CC1(C)CCC(CN2CCN(c3ccc(C(=O)NS(=O)(=O)c4ccc(NCC5CCOCC5)c([N+](=O)[O-])c4)c(Oc4cnc5[nH]ccc5c4)c3)CC2)=C(c2ccc(Cl)cc2)C1 + COc1c(OCCCN2CCOCC2)ccc2c3n(c(=NC(=O)c4cnc(N)nc4)nc12)CCN3
viability, T/C [37]: 59.2%
viability, T/C [38]: 90.8%
viability, T/C [39]: 91.6%
viability, T/C [40]: 81.9%
viability, T/C [41]: 93.3%
viability, T/C [42]: 113%
viability, T/C [43]: 80.5%
viability, T/C [44]: 74.1%
viability, T/C [45]: 75.3%
viability, T/C [46]: 64.3%
viability, T/C [47]: 66.2%
viability, T/C [48]: 69.2%
viability, T/C [5]: 52.7%
viability, T/C [6]: 63.2%
viability, T/C [49]: 72.7%
viability, T/C [50]: 60.1%
viability, T/C [51]: 63%
viability, T/C [52]: 44.5%
viability, T/C [11]: 31.8%
viability, T/C [12]: 31.6%
viability, T/C [53]: 49.6%
viability, T/C [54]: 33.3%
viability, T/C [55]: 45.3%
viability, T/C [56]: 40.1%
viability, T/C [17]: 18.5%
viability, T/C [18]: 20.7%
viability, T/C [57]: 23.2%
viability, T/C [58]: 22.8%
viability, T/C [59]: 24.7%
viability, T/C [60]: 19.7%
viability, T/C [23]: 12.9%
viability, T/C [24]: 11.1%
viability, T/C [61]: 13.6%
viability, T/C [62]: 14.4%
viability, T/C [63]: 13.4%
viability, T/C [64]: 11.7%

IC50 (second compound 0.00316 µM): > 10 µM
IC50 (second compound 0.01 µM): > 10 µM
IC50 (second compound 0.0316 µM): 3.04 µM
IC50 (second compound 0.1 µM): < 0.0316 µM
IC50 (second compound 0.316 µM): < 0.0316 µM
IC50 (second compound 1 µM): < 0.0316 µM
SMILES: CNC(=O)c1ccc(N2C(=S)N(c3ccc(C#N)c(C(F)(F)F)c3)C(=O)C2(C)C)cc1F + COc1c(OCCCN2CCOCC2)ccc2c3n(c(=NC(=O)c4cnc(N)nc4)nc12)CCN3
viability, T/C [37]: 72.7%
viability, T/C [38]: 107%
viability, T/C [39]: 118%
viability, T/C [40]: 110%
viability, T/C [41]: 70.9%
viability, T/C [42]: 55.9%
viability, T/C [43]: 102%
viability, T/C [44]: 107%
viability, T/C [45]: 117%
viability, T/C [46]: 58.2%
viability, T/C [47]: 81.3%
viability, T/C [48]: 55%
viability, T/C [5]: 52.3%
viability, T/C [6]: 61.2%
viability, T/C [49]: 73.6%
viability, T/C [50]: 105%
viability, T/C [51]: 49.2%
viability, T/C [52]: 27.3%
viability, T/C [11]: 35.4%
viability, T/C [12]: 38.6%
viability, T/C [53]: 31.2%
viability, T/C [54]: 36.3%
viability, T/C [55]: 31.5%
viability, T/C [56]: 21.7%
viability, T/C [17]: 19.9%
viability, T/C [18]: 23%
viability, T/C [57]: 23.2%
viability, T/C [58]: 18.5%
viability, T/C [59]: 19.1%
viability, T/C [60]: 17.7%
viability, T/C [23]: 11.2%
viability, T/C [24]: 12.2%
viability, T/C [61]: 9.45%
viability, T/C [62]: 13.1%
viability, T/C [63]: 11.1%
viability, T/C [64]: 9.44%

— PubChem BioAssay AID1963969 (Molecular Pharmacology Branch, DTP, NCI, 2024)
